Measurements reported in ChEMBL document CHEMBL3885861, “Open TG-GATES”.

Species: Rattus norvegicus
Assay: Open TG-GATES - Regimen: Single
Format: toxicity, organism-based, Sprague-Dawley
Set-up: regimen Single, gender Male, age 6 weeks
Settings: in vivo, po, 30 mg/kg, route gavage, dose level Low; for APTT / Bas / Eos / Fbg / Hb / Ht / Lym / MCH / MCHC / MCV / Mono / Neu / PT / Plat / RBC / Ret / WBC: tissue Blood; for KIDNEY_L / KIDNEY_R / KIDNEY_TOTAL: tissue Kidney; for LIVER: tissue Liver; for A/G / ALP / ALT / AST / BUN / CRE / Ca / Cl / DBIL / GLC / IP / K / LDH / Na / PL / RALB / TBIL / TC / TG / TP / gamma-GTP: tissue Plasma

## CCOC(=O)C(C)(C)Oc1ccc(Cl)cc1 [CLOFIBRATE]
9 h
  TERMINAL_BW: 223 g
  APTT: 18.8 s
  Bas: 0%
  Eos: 1%
  Fbg: 228.4 mg/dL
  Hb: 13.2 g/dL
  Ht: 37.7%
  Lym: 79.8%
  MCH: 21.5 pg
  MCHC: 34.9%
  MCV: 61.7 fL
  Mono: 3.2%
  Neu: 15.8%
  PT: 12.8 s
  Plat: 137.4 x10_4/uL
  RBC: 611.4 x10_4/ul
  Ret: 7.4%
  WBC: 101.8 x10_2/uL
  KIDNEY_L: 1 g
  KIDNEY_R: 1 g
  KIDNEY_TOTAL: 1.9 g
  LIVER: 9.1 g
  A/G: 1.6
  ALP: 814.2 IU/L
  ALT: 27.6 IU/L
  AST: 61.4 IU/L
  BUN: 11.2 mg/dL
  CRE: 0.4 mg/dL
  Ca: 10.5 mg/dL
  Cl: 101.6 meq/L
  DBIL: 0.076 mg/dL
  GLC: 216 mg/dL
  IP: 11.1 mg/dL
  K: 3.9 meq/L
  LDH: 238.8 IU/L
  Na: 140.2 meq/L
  PL: 127.2 mg/dL
  RALB: 3.4 g/dL
  TBIL: 0.1 mg/dL
  TC: 65.2 mg/dL
  TG: 54.2 mg/dL
  TP: 5.5 g/dL
  gamma-GTP: 1 IU/L
24 h
  TERMINAL_BW: 238.3 g
  APTT: 20.6 s
  Bas: 0%
  Eos: 1%
  Fbg: 215.6 mg/dL
  Hb: 13.5 g/dL
  Ht: 39%
  Lym: 82%
  MCH: 21.8 pg
  MCHC: 34.8%
  MCV: 62.7 fL
  Mono: 2.8%
  Neu: 13.6%
  PT: 12.6 s
  Plat: 123.8 x10_4/uL
  RBC: 620.8 x10_4/ul
  Ret: 6.6%
  WBC: 103.6 x10_2/uL
  KIDNEY_L: 1 g
  KIDNEY_R: 1 g
  KIDNEY_TOTAL: 2 g
  LIVER: 11.1 g
  A/G: 1.7
  ALP: 1108.2 IU/L
  ALT: 34.2 IU/L
  AST: 66.4 IU/L
  BUN: 13.8 mg/dL
  CRE: 0.4 mg/dL
  Ca: 10.8 mg/dL
  Cl: 102.8 meq/L
  DBIL: 0.084 mg/dL
  GLC: 203.8 mg/dL
  IP: 7.1 mg/dL
  K: 3.9 meq/L
  LDH: 243 IU/L
  Na: 140.6 meq/L
  PL: 141 mg/dL
  RALB: 3.4 g/dL
  TBIL: 0.1 mg/dL
  TC: 65 mg/dL
  TG: 110.4 mg/dL
  TP: 5.5 g/dL
  gamma-GTP: 0.6 IU/L
